Results on seven compounds are retold here after PubChem BioAssay (NCI).

“And” between values parts separate entries of the source, which are not always exact repeats. Equal values may be shown once.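 A five-concentration, 48-hour dose response in 96-well plates underlies each endpoint, interpolated linearly between surrounding concentrations. GI50 marks 50% less growth. TGI marks complete inhibition of growth.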 A value given as a limit tells only on which side of the number the result lay.

Some test systems named below: 786-0 renal; HCT-116 colon; HOP-62 NSCLC; HOP-92 NSCLC; K-562 leukemia; NCI-H460 lung; RXF 393 renal; SF-295 CNS; SR leukemia; TK-10 renal.
Common to all, as to assay: growth of human tumour cells (NCI), 48 h

With `CCC(CC)c1cc(N[C@H]2CC[C@H](N)C2)n2nccc2n1`, the GI50 is 2220 nM in the test on 786-0 renal; 402 nM with HCT-116 colon; 990 nM in the test on HOP-62 NSCLC; 3560 nM in the test with HOP-92 NSCLC; 642 nM in the test on K-562 leukemia; 358 nM in the test with NCI-H460 lung. Also, the GI50 in the test on RXF 393 renal is 632 nM; in the test on SF-295 CNS, 1830 nM; in the test with SR leukemia, 332 nM; in the test with TK-10 renal, 3580 nM. Further, the TGI with 786-0 renal, in the test on HCT-116 colon, with HOP-62 NSCLC, with HOP-92 NSCLC, with K-562 leukemia and in the test on NCI-H460 lung was greater than 100000 nM throughout. Further, the TGI was 2360 nM in the test with RXF 393 renal, greater than 100000 nM in the test on SF-295 CNS, greater than 100000 nM in the test with SR leukemia and greater than 100000 nM in the test with TK-10 renal.
With `CCOC(=O)Nc1ccc2nc(N3CCCCCC3)sc2c1`, the GI50 with 786-0 renal was 6860 nM; in the test on HCT-116 colon it was 573 nM; in the test on HOP-62 NSCLC, 3750 nM; in the test on HOP-92 NSCLC, 6150 nM; in the test with K-562 leukemia it was 501 nM; in the test with NCI-H460 lung, 1400 nM. Moreover, the GI50 in the test with RXF 393 renal was 1990 nM; in the test with SF-295 CNS, 856 nM; in the test with SR leukemia, 405 nM; in the test on TK-10 renal it was 5070 nM. Moreover, the TGI in the test on 786-0 renal is greater than 100000 nM; in the test on HCT-116 colon, greater than 77900 nM; in the test on HOP-62 NSCLC, greater than 100000 nM; in the test with HOP-92 NSCLC, 58900 nM; with K-562 leukemia, greater than 72600 nM; in the test on NCI-H460 lung, greater than 38700 nM. In addition, the TGI with RXF 393 renal is greater than 26200 nM; with SF-295 CNS, 11400 nM; in the test with SR leukemia, greater than 100000 nM; in the test with TK-10 renal, greater than 91000 nM.
Take `O=C(NCCCl)NCCN1c2nc3ccccc3cc2Sc2cc3ccccc3nc21`: the GI50 was 1550 nM in the test with 786-0 renal; 800 nM with HCT-116 colon; 2800 nM in the test with HOP-62 NSCLC; 722 nM with HOP-92 NSCLC; 2140 nM with K-562 leukemia; 475 nM in the test with NCI-H460 lung. The GI50 with RXF 393 renal was 6450 nM; in the test on SF-295 CNS, 569 nM; in the test with TK-10 renal it was 7120 nM. For the same compound, the TGI is 4890 nM with 786-0 renal; 3430 nM in the test on HCT-116 colon; 9870 nM in the test with HOP-62 NSCLC; 7470 nM in the test with HOP-92 NSCLC; greater than 25000 nM in the test with K-562 leukemia; 1940 nM in the test on NCI-H460 lung. Moreover, the TGI in the test on RXF 393 renal is 27900 nM; with SF-295 CNS, 3750 nM; with SR leukemia it was greater than 23300 nM; in the test with TK-10 renal, 28100 nM.
`O=C(/C=C\c1cc(Br)ccc1O)/C=C/c1cc(Br)ccc1O`: the GI50 in the test with 786-0 renal is 1230 nM; in the test on HCT-116 colon, 345 nM; with HOP-62 NSCLC, 3220 nM; in the test on HOP-92 NSCLC, 1570 nM; in the test on K-562 leukemia, 445 nM; with NCI-H460 lung, 1570 nM. The GI50 with RXF 393 renal was 348 nM; in the test with SF-295 CNS, 538 nM; in the test with SR leukemia it was 321 nM; in the test on TK-10 renal, 2050 nM. The TGI turned out to be 2550 nM in the test on 786-0 renal; 1260 nM in the test with HCT-116 colon; 9440 nM with HOP-62 NSCLC; 3690 nM in the test on HOP-92 NSCLC; 8120 nM with K-562 leukemia; 3910 nM in the test on NCI-H460 lung. Also, the TGI with RXF 393 renal was 1410 nM; in the test on SF-295 CNS, 1930 nM; with SR leukemia it was 29700 nM; in the test with TK-10 renal, 4030 nM.
For `C=C[C@H]1CN2CCc3c([nH]c4c([C@@H]5CCCN5C)c(O)ccc34)[C@@H]2C[C@@H]1C[C@H]1c2[nH]c3ccccc3c2CCN1C`, the GI50 was 1630 nM in the test on 786-0 renal; 1130 nM in the test with HCT-116 colon; 161 nM and 197 nM in the test on SR leukemia; 31 nM with TK-10 renal. Further, the TGI in the test on 786-0 renal is 3150 nM and 2830 nM; in the test on HCT-116 colon, 2680 nM and 1480 nM; in the test with HOP-62 NSCLC it was 2870 nM and 2740 nM and 2450 nM; in the test on HOP-92 NSCLC it was 2760 nM and 2910 nM; with NCI-H460 lung, 3100 nM and 2990 nM; in the test on RXF 393 renal, 913 nM and 1520 nM. For the same compound, the TGI in the test on SF-295 CNS is 3050 nM; in the test with SR leukemia it was 520 nM [middle of 4 runs]; with TK-10 renal, 993 nM and 2980 nM and 3440 nM.
Consider `COc1ccc(NC(=S)C#N)cc1`, for which the TGI in the test with 786-0 renal, with HCT-116 colon, with HOP-62 NSCLC, in the test on HOP-92 NSCLC, in the test on K-562 leukemia and with RXF 393 renal was greater than 100000 nM throughout. The TGI with SF-295 CNS, in the test with SR leukemia and in the test on TK-10 renal was greater than 100000 nM each time.
Take `CC1NC(C(=O)O)Cc2cc(O)c(O)cc21` (stereo not given): the TGI in the test on 786-0 renal, in the test on HCT-116 colon, in the test with HOP-62 NSCLC, in the test with HOP-92 NSCLC, with NCI-H460 lung and in the test with RXF 393 renal was greater than 100000 nM in each case. Also, the TGI with SF-295 CNS, in the test with SR leukemia and with TK-10 renal was greater than 100000 nM in each case.
